According to ChEMBL document CHEMBL6182942, “Discovery of a Selective, Novel TGF-βR1 Inhibitor GFH018 for the Treatment of Solid Tumors” (J Med Chem, 2025):
Calls of active or inactive are those of the source. The calls are words filed in the database; no cut-off is given here.

Tests used:
[1] = Drug metabolism in human liver microsomes; type: ADME, Microsome
[2] = Volume of distribution at steady state in CD-1 mouse at 1 mg/kg, iv by LC-MS/MS analysis; type: ADME, organism-based; details: in vivo, read-out: Vdss
4T1-Luc = assay: Antimetastatic activity against mouse 4T1-Luc cells implanted in BALB/c mouse assessed as reduction in metastatic rate in spleen at 100 mg/kg, po administered daily for 32 days and measured on day 30 to 35 by IVIS fluorescence analysis; type: functional, organism-based; details: time 35.0 day
[3] = Oral bioavailability in CD-1 mouse at 75 mg/kg via gavage by LC-MS/MS analysis; type: ADME, organism-based; details: in vivo
[4] = Apparent permeability across apical to basolateral side in dog MDCK-MDR1 cells at 2 uM measured over 150 mins by LC-MS/MS analysis; type: ADME, cell-based, Canis lupus familiaris
[5] = Cmax in Sprague-Dawley rat at 30 mg/kg, po administered via gavage by LC-MS/MS analysis; type: ADME, organism-based; details: in vivo
[6] = Toxicity in mouse CT26 cell implanted BALB/c mouse assessed as change in body weight at 50 mg/kg, po administered twice daily; type: organism-based; details: in vivo
[7] = Clearance in CD-1 mouse at 1 mg/kg, iv by LC-MS/MS analysis; type: ADME, organism-based; details: in vivo
[8] = Cmax in CD-1 mouse at 5 mg/kg, po via gavage by LC-MS/MS analysis; type: ADME, organism-based; details: in vivo
[9] = molecular target: Receptor-interacting serine/threonine-protein kinase 2 (Homo sapiens) (UniProt O43353); assay: Inhibition of RIPK2 (unknown origin) assessed as residual activity at 1 uM relative to control
Receptor-interacting serine/threonine-protein kinase 2 (Homo sapiens), sequence (O43353 whole entry): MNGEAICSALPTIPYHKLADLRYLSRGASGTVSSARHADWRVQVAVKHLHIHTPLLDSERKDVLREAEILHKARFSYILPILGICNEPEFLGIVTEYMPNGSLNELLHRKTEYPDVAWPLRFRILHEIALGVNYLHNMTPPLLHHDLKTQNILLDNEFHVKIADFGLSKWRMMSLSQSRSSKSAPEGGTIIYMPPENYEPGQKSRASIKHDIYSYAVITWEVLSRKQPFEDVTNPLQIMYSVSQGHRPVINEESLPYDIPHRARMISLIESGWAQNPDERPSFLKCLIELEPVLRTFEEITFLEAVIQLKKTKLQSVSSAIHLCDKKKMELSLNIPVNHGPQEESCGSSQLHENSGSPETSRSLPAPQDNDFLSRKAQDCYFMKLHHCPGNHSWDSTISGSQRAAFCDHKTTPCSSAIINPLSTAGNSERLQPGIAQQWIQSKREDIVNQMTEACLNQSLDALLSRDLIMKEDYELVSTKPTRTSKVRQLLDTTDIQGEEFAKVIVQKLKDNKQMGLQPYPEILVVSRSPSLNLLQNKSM

T-cell = assay: Immunostimulatory activity in TGFbeta/anti-CD3 stimulated BALB/c mouse naive T cells assessed as reduction in Treg induction at 0.1 to 10 uM measured after 4 days by immunostaining based flow cytometry; type: functional; details: dose 0.1-10 µM, time 4.0 day
[10] = Protein binding in cynomolgus monkey plasma at 0.2 to 10 uM measured after 4 hrs by equilibrium dialysis based LC-MS/MS analysis; type: ADME, cell-free, Macaca fascicularis; details: dose 0.2-10 µM, read-out: PPB (converted)
[11] = Metabolic stability in mouse liver microsomes assessed as parent compound remaining at 1 uM preincubated for 5 mins followed by NADPH addition by LC-MS/MS analysis; type: ADME, Microsome; details: read-out: Stability
[12] = AUC (0 to last) in Beagle dog at 1 mg/kg, iv by LC-MS/MS analysis; type: ADME, organism-based, Canis lupus familiaris; details: in vivo
[13] = Time at which unbound plasma concentration required to show cellular IC50 for inhibition of smad phosphorylation in mouse H22 cell implanted BALB/c mouse at 15 mg/kg, po administered twice daily for 11 days; type: functional; details: time 11 day
Cytochrome P450 2D6 = Cytochrome P450 2D6 (Homo sapiens, UniProt P10635); assay: Inhibition of CYP2D6 in human liver microsomes using dextromethorphan as substrate preincubated for 10 mins followed by NADPH regeneration system addition and measured after 20 mins by LC-MS/MS analysis; type: ADME, Microsome
Cytochrome P450 2D6, sequence (P10635 whole entry): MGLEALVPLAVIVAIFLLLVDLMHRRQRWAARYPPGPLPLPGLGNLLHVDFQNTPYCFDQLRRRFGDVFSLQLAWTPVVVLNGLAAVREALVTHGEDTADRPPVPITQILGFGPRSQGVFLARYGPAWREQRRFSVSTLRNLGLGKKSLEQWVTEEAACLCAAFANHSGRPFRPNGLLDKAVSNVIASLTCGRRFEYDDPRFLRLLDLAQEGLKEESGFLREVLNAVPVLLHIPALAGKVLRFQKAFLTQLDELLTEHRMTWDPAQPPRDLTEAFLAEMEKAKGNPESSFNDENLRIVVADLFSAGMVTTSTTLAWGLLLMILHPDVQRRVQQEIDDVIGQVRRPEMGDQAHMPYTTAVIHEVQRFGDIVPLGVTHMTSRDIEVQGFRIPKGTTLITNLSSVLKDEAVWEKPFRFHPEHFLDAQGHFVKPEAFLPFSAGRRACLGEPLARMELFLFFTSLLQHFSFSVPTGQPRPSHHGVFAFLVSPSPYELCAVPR

[14] = Toxicity in mouse H22 cell implanted BALB/c mouse assessed as change in body weight at 15 to 50 mg/kg, po administered twice daily for 11 days measured daily during compound dosing; type: organism-based; details: in vivo, 264 h, dose 15-50 mg/kg, time 11 day
H22 = assay: Antitumor activity against mouse H22 cells implanted in BALB/c mouse assessed as tumor growth inhibition at 15 mg/kg, po administered twice daily for 11 days and measured 3 times per week during compound dosing relative to control; type: functional; details: H22, 264 h, time 11 day, read-out: TGI
Cytochrome P450 1A2 = Cytochrome P450 1A2 (Homo sapiens, UniProt P05177); assay: Inhibition of CYP1A2 in human liver microsomes using phenacetin as substrate preincubated for 10 mins followed by NADPH regeneration system addition and measured after 10 mins by LC-MS/MS analysis; type: ADME, Microsome
Cytochrome P450 1A2, sequence (P05177 whole entry): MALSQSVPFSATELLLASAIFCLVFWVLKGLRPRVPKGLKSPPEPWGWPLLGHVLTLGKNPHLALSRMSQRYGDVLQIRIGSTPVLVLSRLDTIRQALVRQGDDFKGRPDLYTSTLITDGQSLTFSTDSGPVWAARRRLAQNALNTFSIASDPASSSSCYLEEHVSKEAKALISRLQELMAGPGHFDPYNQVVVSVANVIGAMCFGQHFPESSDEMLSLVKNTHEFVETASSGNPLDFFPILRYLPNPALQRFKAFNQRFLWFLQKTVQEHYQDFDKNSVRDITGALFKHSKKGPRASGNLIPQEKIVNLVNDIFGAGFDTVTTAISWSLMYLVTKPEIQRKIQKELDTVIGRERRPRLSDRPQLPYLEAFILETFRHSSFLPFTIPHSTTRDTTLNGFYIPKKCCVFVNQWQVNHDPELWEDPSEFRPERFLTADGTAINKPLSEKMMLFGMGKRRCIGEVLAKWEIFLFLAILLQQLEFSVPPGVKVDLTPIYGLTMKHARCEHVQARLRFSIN

MDR1 = assay: Efflux ratio of apparent permeability in dog MDCK-MDR1 cells at 2 uM measured over 150 mins by LC-MS/MS analysis; type: ADME, cell-based, Canis lupus familiaris
[15] = AUC (0 to last) in CD-1 mouse at 5 mg/kg, po via gavage by LC-MS/MS analysis; type: ADME, organism-based; details: in vivo
[16] = Protein binding in mouse plasma at 0.2 to 10 uM measured after 4 hrs by equilibrium dialysis based LC-MS/MS analysis; type: ADME, cell-free; details: dose 0.2-10 µM, read-out: PPB (converted)
[17] = Intrinsic clearance in rat hepatocytes at 1 uM measured after 90 mins by LC-MS/MS analysis; type: ADME, cell-based, Hepatocyte; details: read-out: CLH
CD14-positive cell = assay: Immunostimulatory activity in human PBMC derived M-CSF stimulated CD14-positive cells assessed as increase in TNFalpha level at 0.1 to 10 uM supplemented with fresh medium containing compound on day 1, 3 and 5 followed by M-CSF/IL-4/IL-13 stimulation for 2 days with subsequent LPS induction and measured after 16 hrs; type: functional, cell-based; details: dose 0.1-10 µM, time 7.0 day
[18] = molecular target: Mitogen-activated protein kinase 14 (Homo sapiens, UniProt Q16539); assay: Inhibition of p38alpha (unknown origin) measured after 40 mins in presence of [gamma-33P]ATP by microbeta liquid scintillation counting analysis; type: toxicity
Mitogen-activated protein kinase 14, sequence (Q16539 whole entry): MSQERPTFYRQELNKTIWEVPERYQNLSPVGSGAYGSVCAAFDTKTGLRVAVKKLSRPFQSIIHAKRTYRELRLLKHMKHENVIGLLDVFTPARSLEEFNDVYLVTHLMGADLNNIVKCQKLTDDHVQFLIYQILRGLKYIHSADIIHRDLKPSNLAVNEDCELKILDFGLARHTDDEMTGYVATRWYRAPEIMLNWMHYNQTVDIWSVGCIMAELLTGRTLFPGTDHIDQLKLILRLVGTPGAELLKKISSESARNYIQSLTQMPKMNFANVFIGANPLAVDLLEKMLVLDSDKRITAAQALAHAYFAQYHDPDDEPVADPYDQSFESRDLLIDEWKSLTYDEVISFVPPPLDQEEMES

[19] = molecular target: Tyrosine-protein kinase Lck (Homo sapiens) (UniProt P06239); assay: Inhibition of LCK (unknown origin) assessed as residual activity at 1 uM relative to control
Tyrosine-protein kinase Lck (Homo sapiens), sequence (P06239 2-509 limits assumed): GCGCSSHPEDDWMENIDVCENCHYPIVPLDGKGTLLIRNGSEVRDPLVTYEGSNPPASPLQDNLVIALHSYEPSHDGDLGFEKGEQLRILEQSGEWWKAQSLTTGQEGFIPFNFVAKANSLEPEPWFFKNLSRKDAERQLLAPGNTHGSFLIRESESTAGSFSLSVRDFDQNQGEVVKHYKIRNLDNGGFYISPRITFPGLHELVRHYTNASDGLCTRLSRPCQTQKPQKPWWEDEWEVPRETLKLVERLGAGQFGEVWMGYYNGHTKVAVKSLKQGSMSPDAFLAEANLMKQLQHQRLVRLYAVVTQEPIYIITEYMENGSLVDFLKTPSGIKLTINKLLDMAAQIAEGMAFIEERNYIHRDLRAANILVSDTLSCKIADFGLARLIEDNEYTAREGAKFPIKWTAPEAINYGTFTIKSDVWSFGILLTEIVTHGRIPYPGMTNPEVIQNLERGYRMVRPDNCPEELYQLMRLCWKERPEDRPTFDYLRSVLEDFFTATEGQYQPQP

[20] = Cmax in CD-1 mouse at 75 mg/kg, po via gavage by LC-MS/MS analysis; type: ADME, organism-based; details: in vivo
TGF-beta receptor type-1 = molecular target: T1, TGF-beta receptor type-1 (Homo sapiens, UniProt P36897); assay: Inhibition of human TGFbetaR1 expressed in HEK293 cells co-expressing SBE assessed as reduction in TGFbeta/activin A-induced SMAD phosphorylation preincubated for 4 to 5 hrs followed by TGFbeta/activin A stimulation and measured after 18 hrs by luciferase reporter gene assay; type: cell-based
T1 sequence (P36897 whole entry): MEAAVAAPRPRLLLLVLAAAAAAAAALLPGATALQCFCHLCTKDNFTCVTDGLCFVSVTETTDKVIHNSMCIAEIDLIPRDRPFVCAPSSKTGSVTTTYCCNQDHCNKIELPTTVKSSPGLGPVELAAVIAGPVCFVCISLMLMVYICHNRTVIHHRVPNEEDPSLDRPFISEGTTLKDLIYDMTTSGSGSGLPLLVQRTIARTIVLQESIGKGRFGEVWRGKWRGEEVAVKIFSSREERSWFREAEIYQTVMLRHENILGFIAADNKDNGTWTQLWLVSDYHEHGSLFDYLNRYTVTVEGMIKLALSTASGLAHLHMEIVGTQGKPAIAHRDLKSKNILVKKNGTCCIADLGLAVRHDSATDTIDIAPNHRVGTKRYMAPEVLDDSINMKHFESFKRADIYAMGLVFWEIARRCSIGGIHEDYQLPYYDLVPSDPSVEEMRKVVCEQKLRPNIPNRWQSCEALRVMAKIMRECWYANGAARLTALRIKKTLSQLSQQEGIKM

[21] = Drug metabolism in monkey liver microsomes; type: ADME, Macaca mulatta, Microsome; details: rhesus monkey
[22] = molecular target: Voltage-gated inwardly rectifying potassium channel KCNH2 (Homo sapiens, UniProt Q12809); assay: Inhibition of human ERG stably expressed in HEK293 cells measured at holding potential of -80 mV by manual patch clamp assay; type: toxicity, cell-based
Voltage-gated inwardly rectifying potassium channel KCNH2, sequence (Q12809 whole entry): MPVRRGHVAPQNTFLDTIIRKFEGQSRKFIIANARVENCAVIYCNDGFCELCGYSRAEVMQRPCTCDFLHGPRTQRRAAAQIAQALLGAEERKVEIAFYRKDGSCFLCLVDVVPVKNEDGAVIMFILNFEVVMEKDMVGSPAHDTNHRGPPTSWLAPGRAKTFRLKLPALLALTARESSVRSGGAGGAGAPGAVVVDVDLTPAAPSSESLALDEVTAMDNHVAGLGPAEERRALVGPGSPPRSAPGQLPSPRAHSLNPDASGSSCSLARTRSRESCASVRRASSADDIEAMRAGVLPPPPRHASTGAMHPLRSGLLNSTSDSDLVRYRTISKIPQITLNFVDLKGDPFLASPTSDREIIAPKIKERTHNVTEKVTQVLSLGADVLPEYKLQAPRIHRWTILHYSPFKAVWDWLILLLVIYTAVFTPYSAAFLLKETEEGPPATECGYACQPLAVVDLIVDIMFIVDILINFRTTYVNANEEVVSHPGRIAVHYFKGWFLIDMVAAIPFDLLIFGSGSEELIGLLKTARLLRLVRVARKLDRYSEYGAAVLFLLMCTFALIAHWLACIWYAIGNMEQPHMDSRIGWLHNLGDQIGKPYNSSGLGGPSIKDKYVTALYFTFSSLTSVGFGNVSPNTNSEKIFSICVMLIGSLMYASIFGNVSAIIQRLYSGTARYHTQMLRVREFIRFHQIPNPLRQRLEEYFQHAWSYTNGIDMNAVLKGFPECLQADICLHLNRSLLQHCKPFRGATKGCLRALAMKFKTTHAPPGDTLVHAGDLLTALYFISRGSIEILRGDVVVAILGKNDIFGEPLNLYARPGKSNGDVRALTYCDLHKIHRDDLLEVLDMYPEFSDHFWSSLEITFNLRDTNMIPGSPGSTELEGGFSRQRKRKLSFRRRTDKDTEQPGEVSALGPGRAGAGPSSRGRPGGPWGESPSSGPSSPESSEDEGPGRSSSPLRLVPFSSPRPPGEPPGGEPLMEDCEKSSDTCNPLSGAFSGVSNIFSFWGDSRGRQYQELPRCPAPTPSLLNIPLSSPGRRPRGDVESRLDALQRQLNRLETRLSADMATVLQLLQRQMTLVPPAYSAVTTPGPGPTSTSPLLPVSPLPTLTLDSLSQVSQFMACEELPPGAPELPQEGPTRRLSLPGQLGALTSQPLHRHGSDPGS

With `Cc1cccc(-c2nn3c(c2-c2ccc4ncnn4c2/C=C/C(N)=O)CCC3)n1` as the molecule, how does the Drug metabolism [1] read?
The Drug metabolism was “metabolite_detected”.

And the Vd [2]?
The Vd was 1.4 L/kg.

What about the Activity (4T1-Luc) of the same molecule?
Its Activity is “Active”.

And the bioavailability [3]?
The bioavailability was 36.8%.

What about the Papp A→B at 2.5 h, 2 µM [4] of the same molecule?
The Papp A→B at 2.5 h, 2 µM was 0.39 ×10⁻⁶ cm/s.

What about the Cmax [5] of the same molecule?
Its Cmax is 9553 nM/ml.

And the Activity [6]?
Its Activity is “Non-toxic”.

And the clearance [7]?
The clearance was 63.3 mL/min/kg.

What about the Cmax [8] of the same molecule?
The Cmax was 355 nM/ml.

And the Activity [9]?
The Activity was under 50%.

And the Activity (T-cell)?
Its Activity is “Active”.

And the fraction unbound at 4 h, up to 10 µM [10]?
Its fraction unbound at 4 h, up to 10 µM is 0.522.

What about the remaining at 1 µM [11] of the same molecule?
Its remaining at 1 µM is 20.7%.

And the AUClast [12]?
The AUClast was 5626 nM.hr/ml.

What about the “T>IC50” value [13] of the same molecule?
The value was about 3.5 h.

What about the IC50 (Cytochrome P450 2D6) of the same molecule?
The IC50 was over 100000 nM.

And the Activity [14]?
The Activity was “Non-toxic”.

What about the inhibition in vivo at 15 mg/kg (H22) of the same molecule?
Its inhibition in vivo at 15 mg/kg is 50.8%.

And the IC50 (Cytochrome P450 1A2)?
The IC50 was over 100000 nM.

And the efflux ratio at 2.5 h, 2 µM (MDR1)?
Its efflux ratio at 2.5 h, 2 µM is 70.7.

And the AUClast [15]?
Its AUClast is 285 nM.hr/ml.

What about the fraction unbound at 4 h, up to 10 µM [16] of the same molecule?
The fraction unbound at 4 h, up to 10 µM was 0.554.

What about the CLint scaled at […], 1 µM [17] of the same molecule?
The CLint scaled at […], 1 µM was 50 mL/min/kg.

And the Activity (CD14-positive cell)?
The Activity was “Active”.

What about the IC50 [18] of the same molecule?
The IC50 was 2650 nM.

What about the Activity [19] of the same molecule?
Its Activity is under 50%.

And the Cmax [20]?
Its Cmax is 24233 nM/ml.

What about the IC50 (TGF-beta receptor type-1) of the same molecule?
Its IC50 is 105 nM.

And the Drug metabolism [21]?
The Drug metabolism was “metabolite_detected”.

And the IC50 [22]?
The IC50 was over 30000 nM.
